Entries after “also recorded” stand apart in the source; their conditions may differ.

One series relates to Wild oat. The series can be described thus: Ex12 PRE 2,4-DC + dimethenamid-P, % control 28 DAT, Colby. The format is in vivo, Avena fatua. How it is done:
The tested weeds include: wild buckwheat (Polygonum convolvulus, POLCO), velvetleaf (Abutilon theophrasti, ABUTH), cheat (Bromus secalinus, BROSE), wild oat (Avena fatua, AVEFA), radish (Raphanus sativus, RAPSN), corn poppy (Papaver rhoeas, PAPRH), yellow foxtail (Setaria pumila, SETLU), Italian ryegrass (Lolium perenne ssp. multiflorum, LOLMU). The tested crop was Oilseed rape.
This greenhouse study was conducted to assess the preemergence (PRE) weed control and oilseed rape tolerance with 2,4 DC (CS 36.7%) and dimethenamid-P (Outlook®, 63.9%) tank-mix combinations.
Metazachlor (Butisan, 43.1%) plus dimethenamid-P applied as tank mix at 500 g each was applied as commercial standard. Treatments were replicated 3 times and flats were watered after planting but before the treatment and then lightly watered after treatment application. Thereafter flats were watered and fertilized routinely.

In series [1] the test system is weeds; Wheat and canola. The series can be described thus: Ex35 PRE greenhouse. The format is in vivo. As to conditions: rate in the words. The text has this: Crops screened were wheat and canola.
A further series concerns weeds; canola. The series can be described thus: Ex34 PRE greenhouse. The note with it: rate in the words. It counts as in vivo. The text has this:
Thereafter flats were watered and fertilized routinely.

In series [2] the test system is weeds; Wheat and canola. Description: Ex27 PRE greenhouse. It counts as in vivo. As to conditions: weed and rate in the words. The source says:
The weeds tested in this study were Italian ryegrass (Lolium perenne. multiflorum, LOLMU), wild mustard (Sinapis arvensis, SINAR), annual bluegrass (Poa annua POAAN), wild oat (Avena fatua, AVEFA), blackgrass (Alopecurus myosuroides, ALOMY), common lambsquarters (Chenopodium album […] (Phalaris minor, PHAMI), common chickweed (Stellaria media, STEME), corn poppy (Papaver rhoeas PAPRH). The crops tested were Wheat and canola. […] Treatments were applied before the emergence of Italian ryegrass, wild oat, blackgrass, littleseed canarygrass, common chickweed, common lambsquarters, corn poppy, wild mustard, annual bluegrass, canola, and wheat. […] Flats were watered and fertilized routinely after treatment application. […] Wheat and corn poppy were rated at 14 and 21 DAT only.

The subject of another series is Common ragweed. The series can be described thus: Ex16 PRE 2,4-DC + pyroxasulfone, % control 28 DAT, Colby. The format is in vivo, Ambrosia artemisiifolia. The text has this: To determine PRE efficacy, five levels of 2,4 DC (36.7% CS) 0, 125, 170, 210, or 250 g ai/ha and five levels of pyroxasulfone (KIH485-85WG) 0, 50, 65, 80, or 95 g ai/ha were applied either alone or as tank-mix. Additional treatments consisted of premix of pyroxasulfone plus fluthiacet-methyl (Anthem™ 23.3%) at 169.9 g ai/ha, S-metolachlor (Dual II Magnum, 82.4%) at 1388 g, and tank-mix of mesotrione (Callisto, 40%) at 123 g plus S-metolachlor at 1252 g. […] Treatments were applied before the emergence of black nightshade, giant foxtail, green foxtail, yellow foxtail, large crabgrass, kochia, redroot pigweed, common ragweed, and barnyardgrass.
Flats were watered and fertilized routinely after treatment application. Each treatment was replicated three times.

In series [3] the test system is weeds; Sugarcane (var. CTC 20). The series can be described thus: Ex17 PRE greenhouse. It counts as in vivo. As to conditions: weed and rate in the words. How it is done: In this example a study was conducted to determine weed efficacy and sugarcane injury when 2,4 DC or isoxaflutole are applied either alone or tank-mix as preemergence against the weeds: Ivyleaf morningglory (Ipomoea hederacea, IPOHE), hairy beggartickss (Bidens pilosa, BIDPI), yellow nutsedge (Cyperus esculentus, CYPES), large crabgrass (Digitaria sanguinalis, DIGSA), and redroot pigweed (Amaranthus retroflexus, AMARE). The crop tested in this study was Sugarcane (var. CTC 20).
To determine weed efficacy and sugarcane selectivity, 2,4 DC (SC 36%) and isoxaflutole (Balance Flexx®, 20%) were applied PRE either alone or as tank-mix partners at rates mentioned below. 2,4 DC was applied at 500, 750, and 1000 g ai/ha while isoxaflutole was applied at 80, 100, and 120 g ai/ha. […] Treatments were applied PRE to sugarcane (var. CTC 20), ivyleaf morningglory, hairy beggarticks, yellow nutsedge, large crabgrass, and redroot pigweed. Weed species were planted in fiber flats (6″×10″) containing Pennington soil. Soil was watered before application and watered lightly after application. Flats were watered and fertilized routinely after treatment application.

A further series relates to Wild buckwheat. The series can be described thus: Ex15 PRE 2,4-DC + S-metolachlor, % control 28 DAT, Colby. The format is in vivo, Polygonum convolvulus. The text has this:
The weeds tested in this study were redroot pigweed (Amaranthus retroflexus, AMARE), Jimsonweed (Datura stramonium, DATST), black nightshade (Solanum nigrum, SOLNI), large crabgrass (Digitaria sanguinalis, DIGSA), Pennsylvania smartweed (Polygonum pensylvanicum, POLPY), horseweed (Conyza canadensis, ERICA), wild buckwheat (Polygonum convolvulus, POLCO). The crop tested was Corn (var. Viking).
To determine PRE efficacy and corn injury, five rates of each 2,4 DC (36.7% CS) and S-metolachlor (Dual II Magnum®, 82.4%) were applied either alone or as tank-mix. 2,4 DC was applied at 0, 125, 170, 210, or 250 g ai/ha and S-metolachlor was applied at 0, 267, 534, 801, or 1070 g ai/ha. Additional treatments included application of premix of pyroxasulfone plus fluthiacet-methyl (Anthem™ 23.3%) at 169.9 g ai/ha and tank-mix of mesotrione (Callisto®, 40%) at 123 g plus S-metolachlor at 1252 g. Treatments were applied just after the planting of large crabgrass, Jimsonweed, black nightshade, redroot pigweed, Pennsylvania smartweed, horseweed, wild buckwheat, and corn.
Flats were watered and fertilized routinely after treatment application. Each treatment was replicated three times. […] Corn injury was rated for bleaching and stunting.

The next series concerns weeds; wheat, and corn. The series can be described thus: Ex38 PRE greenhouse. It counts as in vivo. The note with it: rate in the words. The text has this: Pyroxasulfone plus fluthiacet-methyl (ANTHEM™, 23.3%) applied at 165 g ai/ha was included as a standard for comparison. […] Thereafter flats were watered and fertilized routinely.
The next series deals with Wild mustard. Description: Ex13 PRE 2,4-DC + diflufenican, % control 28 DAT, Colby. It counts as in vivo, Sinapis arvensis. The source says:
Pyroxasulfone (KIH-485, 85%) at 74.3 g ai/ha, pendimethalin (Prowl 3.3EC, 37.4%) at 1200 g ai/ha, or a premix of chlorsulfuron plus metsulfuron-methyl (Report Extra, 75%) at 15.8 g ai/ha were applied as commercial standards. […] Treatments were replicated 3 times and flats were watered after planting before the treatment and lightly watered after treatment application. Thereafter flats were watered and fertilized routinely.

Series [4] deals with sweet corn, yellow corn, and sorghum. The note with it: PRE; crop and rate in the words.
From the text: Treatments were also applied ot sweet corn, yellow corn, and sorghum.
Treatments were applied before the emergence of Jimsonweed, velvetleaf, hairy beggarticks, common cocklebur, barnyardgrass, sweet corn, yellow corn, and sorghum. Plant species were planted in fiber flats (6″×10″) containing Pennington soil and flats were watered well before application and watered lightly after application. Flats were watered and fertilized routinely after treatment application.

On to `CC1(C)CON(Cc2ccc(Cl)cc2Cl)C1=O` [2,4-DC, 2-(2,4-dichlorophenyl)methyl-4,4-dimethyl-3-isoxazolidinone], for which the X in the series on Wild oat (2,4-DC alone 125 g ai/ha) is on record as 9%; with Wild oat (2,4-DC alone 170 g ai/ha) it was 27%; with Wild oat (2,4-DC alone 210 g ai/ha), 27%; with Wild oat (2,4-DC alone 250 g ai/ha) it was 29%; in the series with Common ragweed (2,4-DC alone 125 g ai/ha), 33%; in the series on Common ragweed (2,4-DC alone 170 g ai/ha) it was 40%. Further, the X in the series on Common ragweed (2,4-DC alone 210 g ai/ha) amounted to 40%; with Common ragweed (2,4-DC alone 250 g ai/ha) it was 45%; with Wild buckwheat (2,4-DC alone 125 g ai/ha), 15%; with Wild buckwheat (2,4-DC alone 170 g ai/ha), 43%; with Wild buckwheat (2,4-DC alone 210 g ai/ha), 30%; in the series with Wild buckwheat (2,4-DC alone 250 g ai/ha), 32%. Besides, the X in the series with Wild mustard (2,4-DC alone 125 g ai/ha) came out at 10%; in the series with Wild mustard (2,4-DC alone 170 g ai/ha), 15%; in the series on Wild mustard (2,4-DC alone 210 g ai/ha), 26%; with Wild mustard (2,4-DC alone 250 g ai/ha), 23%. Further, the “weed control / crop safety in words” value was “alone at 50 g ai/ha controlled (≥85% injury) common chickweed, at 100 g controlled blackgrass and wild buckwheat; also recorded: alone was safe on wheat and canola (≤10% injury) when applied at 50 and 100 g” with weeds; Wheat and canola [1]; “applied alone at 31.2 g ai/ha controlled common chickweed, at 125 g controlled common lambsquarters and injured canola, at 250 g controlled blackgrass and Italian ryegrass” in the series on weeds; canola; “applied alone at ≥50 g ai/ha controlled (≥85%) kochia, at ≥200 g controlled Italian ryegrass or redroot pigweed, and controlled velvetleaf at 400 g” with weeds; wheat, and corn. Also, the “weed control in words” value was “provided good control of blackgrass at 375 g; controlled Italian ryegrass at ≥125 g and common chickweed at all rates” in the series with weeds; Wheat and canola [2]; “Large crabgrass and redroot pigweed were controlled with 2,4 DC alone at 500 g or higher rates” in [3]. Besides, in series [4], the “crop safety in words” value was “alone was safe on sweet corn and sorghum at the lowest rate while safe on yellow corn at 50 or 100 g ai/ha”.

The record behind these values is patent US12616203B2, “Use of 3-isoxazolidinones compounds as selective herbicides” (FMC Corporation, priority 2014, dated 2026).
